Test results: the CheMixHub viscosity set

Assay: xn = mol fraction of the nth substance listed

CCCCCCCCCCCCCC[P+](CCCCCC)(CCCCCC)CCCCCC.c1nnc[n-]1 + COCCOCCOCCOCCOC
viscosity [mPa·s], 100 kPa
Conditions	x1 = 0.418	x1 = 0.516	x1 = 0.61	x1 = 0.694	x1 = 0.751	x1 = 0.804	x1 = 0.874	x1 = 0.954
293.15 K	66	111	167	272	360	508	679	994
298.15 K	53	88	128	208	269	374	491	706
303.15 K	–	70	101	162	205	281	364	512
308.15 K	–	57	81	129	160	217	275	382
313.15 K	–	–	66	104	126	169	212	289
318.15 K	–	–	54	86	102	135	166	223
323.15 K	–	–	–	71	83	109	133	176

O=C(OCc1ccccc1)c1ccccc1O + CS(C)=O
303.15 K, 101 kPa
Conditions	viscosity [mPa·s]
x1 = 0.079	2.299
x1 = 0.1284	2.529
x1 = 0.1867	2.933
x1 = 0.2564	3.273
x1 = 0.3413	3.776
x1 = 0.4467	4.342
x1 = 0.5812	4.995

CCC12CC3CC(CC(C3)C1)C2 + CCCCCCCCCCC
viscosity [mPa·s], 100 kPa
Conditions	x1 = 0.1012	x1 = 0.2042	x1 = 0.3018	x1 = 0.4017	x1 = 0.5014	x1 = 0.6059	x1 = 0.7013	x1 = 0.8052	x1 = 0.8999
293.15 K	1.348	1.47	1.631	1.86	2.179	2.592	3.18	4.01	5.036
298.15 K	1.203	1.334	1.489	1.692	1.93	2.302	2.77	3.47	4.339
303.15 K	1.108	1.225	1.366	1.546	1.764	2.091	2.514	3.129	3.854
308.15 K	1.025	1.133	1.271	1.418	1.601	1.883	2.235	2.77	3.404
313.15 K	0.953	1.049	1.173	1.311	1.472	1.728	2.039	2.509	3.078
318.15 K	0.887	0.983	1.092	1.22	1.377	1.6	1.882	2.284	2.781
323.15 K	0.829	0.92	1.013	1.135	1.272	1.472	1.723	2.094	2.512

CC(C)CC(C)(C)C + c1ccccc1
308.15 K, 101 kPa
Conditions	viscosity [mPa·s]
x1 = 0.0565	0.5093
x1 = 0.1062	0.4873
x1 = 0.1666	0.4676
x1 = 0.2409	0.4496
x1 = 0.3214	0.436
x1 = 0.412	0.4255
x1 = 0.5227	0.4188
x1 = 0.6688	0.4174
x1 = 0.8154	0.423

CC(=O)CC(C)C + CCCCCCCCO
viscosity [mPa·s], 100 kPa
Conditions	x1 = 0.0818	x1 = 0.1616	x1 = 0.2492	x1 = 0.3517	x1 = 0.4411	x1 = 0.5629	x1 = 0.6505	x1 = 0.7501	x1 = 0.8518	x1 = 0.9519
293.15 K	7.68	6.48	5.45	4.46	3.71	2.87	2.32	1.72	1.2	0.76
303.15 K	5.45	4.69	3.97	3.27	2.78	2.19	1.8	1.37	0.97	0.65
313.15 K	4	3.46	2.97	2.47	2.1	1.67	1.4	1.11	0.82	0.57
323.15 K	3	2.63	2.28	1.92	1.65	1.34	1.14	0.93	0.71	0.5

CCCCCC(=O)O + c1ccccc1
298.15 K, 101 kPa
Conditions	viscosity [mPa·s]
x1 = 0.03	0.626
x1 = 0.07	0.653
x1 = 0.11	0.684
x1 = 0.14	0.718
x1 = 0.31	0.908
x1 = 0.4	1.058
x1 = 0.5	1.284
x1 = 0.73	1.844

CC(=O)CC(C)C + O=C1CCCCC1
298.15 K, 101 kPa
Conditions	viscosity [mPa·s]
x1 = 0.1218	1.58
x1 = 0.2067	1.371
x1 = 0.3146	1.163
x1 = 0.3931	1.037
x1 = 0.534	0.872
x1 = 0.6373	0.773
x1 = 0.7694	0.672
x1 = 0.888	0.599

CC(C)CC(C)(C)C + CCCCCCCCCC
298.15 K, 101 kPa
Conditions	viscosity [mPa·s]
x1 = 0.08287	0.7981
x1 = 0.2249	0.7573
x1 = 0.3493	0.7059
x1 = 0.4309	0.6689
x1 = 0.5526	0.6214
x1 = 0.6412	0.5981
x1 = 0.735	0.5645
x1 = 0.8255	0.5303
x1 = 0.8936	0.512
x1 = 0.9357	0.4966

CC(C)CC(C)(C)C + CC(C)O
viscosity [mPa·s], 101 kPa
Conditions	298.15 K	308.15 K
x1 = 0.0513	1.722	–
x1 = 0.0555	1.703	–
x1 = 0.1045	1.47	–
x1 = 0.1511	1.3	–
x1 = 0.2103	1.123	–
x1 = 0.2394	1.066	–
x1 = 0.2822	0.947	–
x1 = 0.4108	0.751	–
x1 = 0.4264	0.734	–
x1 = 0.5195	0.64	–
x1 = 0.5751	0.599	–
x1 = 0.6545	0.562	–
x1 = 0.6978	0.54	–
x1 = 0.8094	0.505	–
x1 = 0.9505	0.49	–
x2 = 0.05	0.482	0.432
x2 = 0.1	0.486	0.434
x2 = 0.1501	0.493	0.44
x2 = 0.2	0.503	0.447
x2 = 0.25	0.515	0.457
x2 = 0.3	0.53	0.468
x2 = 0.35	0.55	0.483
x2 = 0.4	0.576	0.501
x2 = 0.45	0.608	0.524
x2 = 0.5	0.646	0.552
x2 = 0.55	0.694	0.586
x2 = 0.6	0.751	0.628
x2 = 0.65	0.819	0.677
x2 = 0.7	0.901	0.736
x2 = 0.75	1.003	0.806
x2 = 0.8	1.122	0.898
x2 = 0.85	1.277	1.006
x2 = 0.9	1.407	1.145
x2 = 0.95	1.707	1.31

O=C1CCCCC1 + CCOC(=O)OCC
viscosity [mPa·s], 101 kPa
Conditions	x2 = 0.0898	x2 = 0.1505	x2 = 0.2556	x2 = 0.3587	x2 = 0.4619	x2 = 0.5665	x2 = 0.6701	x2 = 0.7601	x2 = 0.8945	x2 = 0.9487
303.15 K	1.626	1.498	1.321	1.156	1.028	0.911	0.825	0.768	0.719	0.708
308.15 K	1.479	1.37	1.202	1.056	0.937	0.837	0.759	0.711	0.669	0.658
313.15 K	1.375	1.274	1.116	0.981	0.873	0.784	0.714	0.668	0.626	0.617

CCOCC + CCCCO
303.16 K, 101 kPa
Conditions	viscosity [mPa·s]
x1 = 0.09	1.958
x1 = 0.17	1.512
x1 = 0.27	0.9582
x1 = 0.4	0.8084
x1 = 0.51	0.6978
x1 = 0.6	0.5936
x1 = 0.67	0.4746
x1 = 0.74	0.3798
x1 = 0.81	0.291

CC(=O)CC(C)C + CC(C)CCO
viscosity [mPa·s]
Conditions	x1 = 0.1006	x1 = 0.2027	x1 = 0.3201	x1 = 0.3948	x1 = 0.5073	x1 = 0.6072	x1 = 0.7013	x1 = 0.8032	x1 = 0.8927
298.15 K, 101 kPa	2.58	1.89	1.4	1.2	0.965	0.839	0.728	0.648	0.595
298.15 K, 101.3 kPa	2.58	1.89	1.4	1.2	0.965	0.839	0.728	0.648	0.595
303.15 K, 101.3 kPa	2.26	1.69	1.28	1.1	0.903	0.781	0.682	0.617	0.566
308.15 K, 101.3 kPa	1.99	1.51	1.17	1.01	0.837	0.728	0.64	0.579	0.534
313.15 K, 101.3 kPa	1.75	1.36	1.05	0.926	0.766	0.681	0.602	0.545	0.506

CC(=O)CC(C)C + CCCCN(CCCC)CCCC
viscosity [mPa·s], 101 kPa
Conditions	298.15 K	303.15 K	308.15 K
x2 = 0.0501	0.564	0.53	0.499
x2 = 0.1	0.593	0.556	0.524
x2 = 0.1499	0.622	0.582	0.549
x2 = 0.2004	0.653	0.609	0.576
x2 = 0.25	0.685	0.638	0.601
x2 = 0.3017	0.719	0.668	0.628
x2 = 0.4004	0.786	0.727	0.681
x2 = 0.4999	0.856	0.788	0.737
x2 = 0.6004	0.928	0.855	0.796
x2 = 0.6962	1.002	0.922	0.855
x2 = 0.8004	1.087	0.998	0.922
x2 = 0.8496	1.129	1.033	0.954
x2 = 0.8997	1.171	1.07	0.988
x2 = 0.9499	1.22	1.114	1.023

CC(=O)CC(C)C + CCCCOC(C)=O
298.15 K, 101.33 kPa
Conditions	viscosity [mPa·s]
x1 = 0.128	0.66
x1 = 0.2471	0.643
x1 = 0.3594	0.628
x1 = 0.4715	0.612
x1 = 0.5881	0.595
x1 = 0.6863	0.583
x1 = 0.7901	0.57
x1 = 0.8902	0.556

O=C1CCCCC1 + CCCCOC(C)=O
viscosity [mPa·s], 101 kPa
Conditions	298.15 K	303.15 K	308.15 K	313.15 K
x1 = 0.1162	0.689	–	–	–
x1 = 0.2283	0.732	–	–	–
x1 = 0.3365	0.788	–	–	–
x1 = 0.441	0.871	–	–	–
x1 = 0.542	0.976	–	–	–
x1 = 0.6397	1.109	–	–	–
x1 = 0.7341	1.281	–	–	–
x1 = 0.8256	1.478	–	–	–
x1 = 0.9142	1.731	–	–	–
x2 = 0.0814	1.757	1.589	1.445	1.321
x2 = 0.165	1.536	1.393	1.274	1.166
x2 = 0.2509	1.362	1.235	1.137	1.045
x2 = 0.3438	1.214	1.101	1.016	0.934
x2 = 0.4391	1.099	0.999	0.922	0.852
x2 = 0.5412	0.995	0.904	0.838	0.775
x2 = 0.6451	0.914	0.83	0.774	0.715
x2 = 0.7589	0.836	0.763	0.711	0.66
x2 = 0.8707	0.767	0.7	0.658	0.61

CCCCCCO + Cc1ccccc1
viscosity [mPa·s], 101 kPa
Conditions	x2 = 0.1151	x2 = 0.2265	x2 = 0.3342	x2 = 0.4384	x2 = 0.5394	x2 = 0.6372	x2 = 0.7321	x2 = 0.8241	x2 = 0.9133
303.15 K	2.859	2.167	1.692	1.351	1.099	0.882	0.7364	0.6235	0.5592
313.15 K	2.206	1.701	1.341	1.097	0.9164	0.7593	0.6439	0.5569	0.5069
323.15 K	1.661	1.321	1.057	0.8845	0.7532	0.6516	0.5418	0.4674	0.4336

CC(C)CC(C)(C)C + CCCCCCCC
viscosity [mPa·s]
Conditions	x1 = 0.2	x1 = 0.4	x1 = 0.5	x1 = 0.6	x1 = 0.8
293.15 K, 101 kPa	0.528	0.519	–	0.51	0.503
298.2 K, 100 kPa	–	–	0.4882	–	–
313.15 K, 101 kPa	0.421	0.415	–	0.408	0.403
